Test results from PMC5866846 (Archives of Toxicology, 2017).
Read-outs that look alike come from different tables or passages of the source. Values belong to the molecule of their own block, whether it stands above or below them.

Assays:
[1] = test system: upcyte hepatocytes 653-03 2D6; assay: Tam metabolism in upcyte hepatocytes 653-03 2D6, metabolites in culture medium; type: in vitro ADME, human; conditions: cells incubated with 1 µM Tam up to 144 h; for concentration in the culture medium: 653-03 2D6
Description: (§1) The medium was replaced every 2–3 days. […].
(§2) The culture medium was collected after 24, 48, 72, 96 and 144 h followed by metabolite measurements using HPLC-ESI-MS/MS.
(§3) Protein was precipitated by the addition of ACN containing 1% of acetic acid and the corresponding deuterated internal standards to the same volume of the sample followed by centrifugation at 20.000 g for 15 min at RT. […] Analytes were separated on a Zorbax Eclipse Plus C18 column (1.8 µm, 100 × 2.1 mm, Agilent technologies) and detected on a 6460 triple quadrupole mass spectrometer (Agilent technologies) in positive ESI MRM mode. Glucuronides of estrogen-like metabolites were detected separately via MS/MS-measurements in negative ESI MRM mode.
(§4) […]. […] […].

[2] = Formation kinetics of Tam-Bis, (Z)- and (E)-Met E in HLM with increasing substrate concentrations; type: in vitro ADME, human; conditions: substrate 1 to 50 µM, Michaelis-Menten
Description: The reaction was started by adding a NADPH regenerating system (5 mM MgCl2, 5 mM glucose-6-phosphate, 0.5 mM NADP^+ and 10 U glucose-6-phosphate-dehydrogenase in 100 mM sodium phosphate buffer pH 7.4) to the samples and immediately put in a 37 °C water bath for 30 min. The reaction was stopped with the same volume of acetonitrile (ACN) containing 1% of acetic acid together with the corresponding deuterated internal standards. Regarding incubations with Supersomes™ containing UGTs, 5 µg of protein was incubated with 250 mM MgCl2 and 2.5 ng of alamethicin for 30 min on ice, followed by 10 min at 37 °C in a water bath. Subsequently, the Supersomes™ were incubated with 10 µM of substrates (Tam-Bis, (E)- and (Z)-Met E) and the glucuronidation was started by addition of 10 mM of uridine 5′-diphospho-glucuronic acid to the samples in a water bath at 37 °C for 30 min. The reaction was stopped as described above. Metabolites were analyzed by HPLC-ESI-MS/MS.
For the assessment of formation kinetics of Tam-Bis, (E)- and (Z)-Metabolite E, HLM were incubated with increasing substrate concentrations ranging from 1 to 50 µM as described above. As control for each concentration a sample without NADPH-regenerating system was prepared. […]

estrogen receptor = test system: estrogen receptor; design: method as in Johnson et al. [1989]; Murphy et al. [1990]; conditions: in vitro, estrogen-dependent breast cancer cell lines; ref Johnson et al. [1989]; Murphy et al. [1990]; cited from earlier work
CYP3A4 = CYP3A4 activity in upcyte hepatocytes after treatment (probe substrate cocktail); conditions: 72 h
Description: (§5) Cells were cultivated in hepatocyte culture medium at 37 °C and 5 °% CO2 in a humidified incubator. Before starting experiments, cells were cultivated in hepatocyte culture medium containing 0.5% (v/v) DMSO (Preculture medium) for 5 days (density of 0.8 × 10^4 cells/cm^2) and were subcultivated in high-performance medium containing 0.1% (v/v) DMSO (Metabolism conditioning medium) for 3–5 days (density of 1.6 × 10^5 cells/cm^2, confluence). The medium was replaced every 2–3 days.
(§6) In HLM and supersome™ incubations the formation rate is given as nmol µg^−1 min^−1 and fmol pmol^−1 min^−1, respectively, and was calculated as the mean ± SD. […] The intrinsic Clearance (Clint) was given as Vmax/Km ratio. […] Activity of CYP enzymes in induction assays is given as the fold-change (mean ± SD) compared to the corresponding DMSO-treated control. […] Gene expression patterns of treated cells are given as fold-change compared to the corresponding DMSO-treated control samples, as described above. […] In induction and inhibition experiments corresponding EC50 and IC50 values were calculated by nonlinear regression. In all experiments a level of probability (p) ≤ 0.05 for statistical testing was considered significant.
(§7) As control 0.05 % DMSO was used. The basal CYP activity and induction of CYP activity compared to the DMSO control were measured via HPLC-ESI-MS/MS.

CYP2B6 = CYP2B6 activity in upcyte hepatocytes after treatment (probe substrate cocktail); conditions: read-out: EC50 of induction of CYP2B6 activity; upcyte hepatocytes, 72 h, 50 pM to 5 µM
Description: as §5, §6, §7

CYP2C19 [3] = target: T1, CYP2C19 (Homo sapiens, UniProt P33261); assay: CYP2C19 activity in upcyte hepatocytes after treatment (probe substrate cocktail); type: cell-based; design: host or cells: upcyte hepatocytes 653-03 and 653-03 #138 (653-03 2D6); conditions: upcyte hepatocytes, 72 h, 50 pM to 5 µM; read-out: EC50 of induction of CYP2C19 activity
T1 sequence (P33261 whole entry): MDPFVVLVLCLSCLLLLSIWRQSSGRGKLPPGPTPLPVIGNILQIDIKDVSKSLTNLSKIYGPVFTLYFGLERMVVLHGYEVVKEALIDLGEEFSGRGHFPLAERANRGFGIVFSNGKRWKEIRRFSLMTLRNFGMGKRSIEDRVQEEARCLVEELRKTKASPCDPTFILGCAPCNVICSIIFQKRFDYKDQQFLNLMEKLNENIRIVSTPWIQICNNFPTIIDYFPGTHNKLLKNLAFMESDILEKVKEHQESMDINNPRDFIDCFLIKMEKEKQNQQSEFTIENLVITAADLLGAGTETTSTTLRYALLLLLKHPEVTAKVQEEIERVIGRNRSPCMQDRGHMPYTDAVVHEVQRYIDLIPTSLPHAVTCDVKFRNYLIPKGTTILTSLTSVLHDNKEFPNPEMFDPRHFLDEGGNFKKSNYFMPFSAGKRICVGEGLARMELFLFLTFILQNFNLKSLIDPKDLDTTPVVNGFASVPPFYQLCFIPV
Description: as §5, §6, §7

CYP1A1 gene expression = CYP1A1 gene expression in upcyte hepatocytes (Fluidigm RT-PCR); type: cell-based, human; conditions: 5 µM, 72 h, both cell strains
From the text: Differences between induced and control samples were compared using Welch’s t-test (GraphPad Prism, version 5.04), when the fold-change was considered biologically relevant (1.5-fold increase or decrease in fold-changes) and corrected for multiple testing according to Bonferroni. […] An unpaired t-test assuming unequal variances was used for testing of differences in the expression patterns, when the fold-change was considered biologically relevant (1.5-fold increase or decrease in fold-changes) and corrected using Bonferroni adjustments.

CYP2C8 [4] = target: T2, CYP2C8 (Homo sapiens, UniProt P10632); assay: CYP2C8 activity in upcyte hepatocytes after treatment (probe substrate cocktail); type: cell-based; design: host or cells: upcyte hepatocytes 653-03 and 653-03 #138 (653-03 2D6)
T2 sequence (P10632 1-490): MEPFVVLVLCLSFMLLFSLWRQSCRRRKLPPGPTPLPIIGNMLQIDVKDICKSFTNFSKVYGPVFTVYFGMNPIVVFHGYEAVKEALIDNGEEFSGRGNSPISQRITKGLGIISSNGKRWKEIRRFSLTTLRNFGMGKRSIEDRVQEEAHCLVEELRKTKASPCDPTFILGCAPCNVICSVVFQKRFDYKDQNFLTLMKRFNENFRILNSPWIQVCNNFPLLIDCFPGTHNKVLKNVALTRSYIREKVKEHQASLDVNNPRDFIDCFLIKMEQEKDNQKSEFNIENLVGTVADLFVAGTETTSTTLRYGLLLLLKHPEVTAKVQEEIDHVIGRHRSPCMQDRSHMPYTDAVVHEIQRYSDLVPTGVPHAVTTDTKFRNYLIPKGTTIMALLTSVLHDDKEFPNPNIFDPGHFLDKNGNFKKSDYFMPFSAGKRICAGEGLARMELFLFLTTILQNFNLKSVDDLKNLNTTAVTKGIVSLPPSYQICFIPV
Description: as §5, §6, §7

CYP2C9 [5] = target: T3, CYP2C9 (Homo sapiens, UniProt P11712); assay: CYP2C9 activity in upcyte hepatocytes after treatment (probe substrate cocktail); type: cell-based; design: host or cells: upcyte hepatocytes 653-03 and 653-03 #138 (653-03 2D6); conditions: human
T3 sequence (P11712 whole entry): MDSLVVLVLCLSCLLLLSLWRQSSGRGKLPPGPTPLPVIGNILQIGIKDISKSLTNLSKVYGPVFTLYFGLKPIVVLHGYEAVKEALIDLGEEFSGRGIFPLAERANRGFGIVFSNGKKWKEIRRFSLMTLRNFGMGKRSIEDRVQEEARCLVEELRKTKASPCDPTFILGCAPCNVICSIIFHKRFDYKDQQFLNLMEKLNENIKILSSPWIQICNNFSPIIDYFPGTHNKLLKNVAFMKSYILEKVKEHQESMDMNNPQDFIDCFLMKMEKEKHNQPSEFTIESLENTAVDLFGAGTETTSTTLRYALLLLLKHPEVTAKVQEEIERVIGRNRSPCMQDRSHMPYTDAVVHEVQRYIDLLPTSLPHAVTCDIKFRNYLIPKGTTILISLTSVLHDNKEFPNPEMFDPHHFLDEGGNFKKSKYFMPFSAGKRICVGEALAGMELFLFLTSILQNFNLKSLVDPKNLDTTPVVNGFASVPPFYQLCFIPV
Description: as §5, §6, §7

CYP1A2 = CYP1A2 activity in upcyte hepatocytes after treatment (probe substrate cocktail); conditions: read-out: EC50 of induction of CYP1A2 activity, 72 h, 50 pM to 5 µM
Description: as §5, §6, §7

[6] = test system: upcyte hepatocytes 653-03 and 653-03 2D6; assay: Tam metabolism in upcyte hepatocytes, cell strain not distinguished; type: in vitro ADME, human; conditions: cells incubated with 1 µM Tam; highest concentration, decreased over time
Description: as §1, §2, §3, §4

[7] = test system: upcyte hepatocytes 653-03; assay: Tam metabolism in upcyte hepatocytes 653-03 (parental), metabolites in culture medium; type: in vitro ADME, human; conditions: cells incubated with 1 µM Tam up to 144 h, parental 653-03
Description: as §1, §2, §3, §4

CYP2C8 [8] = target: T2, CYP2C8; assay: Inhibition of CYP2C8 activity in HLM; type: in vitro ADME; conditions: 200 nM to 10 µM, 10 min pre-incubation
CYP2C9 [9] = target: T3, CYP2C9; assay: Inhibition of CYP2C9 activity in HLM; type: in vitro ADME; conditions: 200 nM to 10 µM, 10 min pre-incubation
CYP2C19 [10] = target: T1, CYP2C19; assay: Inhibition of CYP2C19 activity in HLM; type: in vitro ADME; conditions: human, human liver microsomes, 200 nM to 10 µM, 10 min pre-incubation
[11] = read-out: Km, (E)-Met E formation
[12] = read-out: Km, (Z)-Met E formation

concentration in the supernatant of 653-03 2D6 cells relative to parental cells [1]: up to 25 times
SMILES: CC/C(=C(/c1ccc(OCCN(C)C)cc1)c1ccc(O[C@@H]2O[C@H](C(=O)O)[C@@H](O)[C@H](O)[C@H]2O)cc1)c1ccccc1 [4OH-Tam-glucuronide, tamoxifen-4-O-glucuronide]

SMILES: CCC(=C(c1ccccc1)c1ccc(O)cc1)c1ccccc1 [(Z)-Met E, 4-[1,2-diphenylbut-1-en-1-yl]phenol]
V max, Bisphenol formation [2]: 17.2 pmol/mg/min
Km ([2]; read-out: Km, Bisphenol formation): 8.2 µM
agonism regarding estrogen-regulated mRNA expression (estrogen receptor): full agonists
induction of CYP3A4 activity compared to DMSO control (CYP3A4; 5 µM, parental and derived cell line): weakly induced
EC50 (CYP3A4; read-out: EC50 of induction of CYP3A4 activity, upcyte hepatocytes, 50 pM to 5 µM): 0.308 µM
EC50 (CYP2B6): > 5 µM
EC50 (CYP2C19 [3]): > 5 µM
CYP1A1 gene expression, induction vs DMSO control (CYP1A1 gene expression): 3.3 fold
EC50 (CYP2C8 [4]; upcyte hepatocytes, 72 h, 50 pM to 5 µM, read-out: EC50 of induction of CYP2C8 activity): > 5 µM
EC50 at 72 h (CYP2C9 [5]; probe tolbutamide (100 µM), upcyte hepatocytes, 50 pM to 5 µM, read-out: EC50 of induction of CYP2C9 activity): > 5 µM
EC50 (CYP1A2): > 5 µM
concentration in the supernatant of the cells [6]: up to 440 pM

Km [2, 11]: 20.7 µM
Km [2, 12]: 55.1 µM
SMILES: CC/C(=C(\c1ccccc1)c1ccc(OCCN)cc1)c1ccccc1 [DDM-Tam, N-didesmethyl-tamoxifen]
V max, (E)-Met E formation [2]: 0.70 pmol/mg/min
V max, (Z)-Met E formation [2]: 5.2 pmol/mg/min

concentration in the culture medium [7]: up to 8 nM
Km [2, 11]: 11.5 µM
Km [2, 12]: 102 µM
concentration in the culture medium [1]: ≤ 14 nM
SMILES: CC/C(=C(\c1ccccc1)c1ccc(OCCNC)cc1)c1ccccc1 [DM-Tam, N-desmethyltamoxifen]
V max, (E)-Met E formation [2]: 0.32 pmol/mg/min
V max, (Z)-Met E formation [2]: 6.1 pmol/mg/min

IC50 (CYP2C8 [8]): 8.1 µM
CYP1A1 gene expression, induction vs DMSO control (CYP1A1 gene expression): up to 2.3 fold
inhibition at 72 h, 5 µM (CYP2C8 [4]; human, upcyte hepatocytes 653-03 and 653-03 2D6, probe amodiaquine 5 µM, 5 µM, both cell lines): ≤ 90%
inhibition at 72 h, 5 µM (CYP2C9 [5]; probe tolbutamide 100 µM, 5 µM): 63%
IC50 (CYP2C9 [9]): > 10 µM
IC50 of CYP2C9 activity (CYP2C9 [9]): weakly inhibited
concentration in the culture medium [1]: up to 11 nM
IC50 at 15 min (CYP2C19 [10]): > 10 µM
SMILES: CC/C(=C(\c1ccc(O)cc1)c1ccc(OCCNC)cc1)c1ccccc1 [Endox, (Z)-endoxifen]
